# Laboratory results as given in article PMC3588010, “Effect of Human Flavin-Containing Monooxygenase 3 Polymorphism on the Metabolism of Aurora Kinase Inhibitors” (International Journal of Molecular Sciences, 2013).
# T1: wild type hFMO3 (Homo sapiens, UniProt P31513)
# T1 construct: made in house; host or cells: E. coli JM109 (vector pJL2)
# T1 sequence (P31513 1-532): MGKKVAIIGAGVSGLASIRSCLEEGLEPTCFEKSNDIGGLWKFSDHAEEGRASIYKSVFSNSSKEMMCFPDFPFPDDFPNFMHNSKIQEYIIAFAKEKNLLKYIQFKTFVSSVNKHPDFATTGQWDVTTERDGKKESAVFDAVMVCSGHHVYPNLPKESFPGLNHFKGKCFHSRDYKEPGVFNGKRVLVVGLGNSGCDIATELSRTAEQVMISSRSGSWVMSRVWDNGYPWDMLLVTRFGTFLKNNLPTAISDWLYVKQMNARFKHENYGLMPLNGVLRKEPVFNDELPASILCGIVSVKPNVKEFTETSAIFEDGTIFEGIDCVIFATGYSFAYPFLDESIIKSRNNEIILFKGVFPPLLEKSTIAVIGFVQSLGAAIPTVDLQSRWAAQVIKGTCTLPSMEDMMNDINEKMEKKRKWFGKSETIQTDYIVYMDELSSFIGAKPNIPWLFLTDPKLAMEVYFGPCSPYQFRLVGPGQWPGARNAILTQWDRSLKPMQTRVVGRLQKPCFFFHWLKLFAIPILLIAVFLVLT
# T2: V257M hFMO3 (Homo sapiens, UniProt P31513, V257M)
# T2 construct: made in house; host or cells: E. coli JM109 (vector pJL2)
# T2 sequence (P31513 1-532 V257M): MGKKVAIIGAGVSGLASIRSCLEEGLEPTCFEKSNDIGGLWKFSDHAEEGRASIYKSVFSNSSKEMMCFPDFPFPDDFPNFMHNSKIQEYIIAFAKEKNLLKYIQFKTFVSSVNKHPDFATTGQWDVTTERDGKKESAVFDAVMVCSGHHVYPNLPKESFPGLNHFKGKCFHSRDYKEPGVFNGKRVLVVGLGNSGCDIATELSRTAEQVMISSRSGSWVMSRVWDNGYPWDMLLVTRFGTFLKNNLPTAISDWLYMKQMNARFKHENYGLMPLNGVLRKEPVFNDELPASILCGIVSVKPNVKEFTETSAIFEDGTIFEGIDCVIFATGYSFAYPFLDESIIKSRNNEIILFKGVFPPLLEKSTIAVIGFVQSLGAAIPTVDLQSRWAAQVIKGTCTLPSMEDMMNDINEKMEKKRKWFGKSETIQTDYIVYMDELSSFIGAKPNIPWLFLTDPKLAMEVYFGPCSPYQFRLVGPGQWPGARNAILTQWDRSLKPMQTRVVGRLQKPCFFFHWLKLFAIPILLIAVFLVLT
# Assays:
# wild type hFMO3 = target: T1, wild type hFMO3; experiment: N-oxygenation kinetics with purified wild-type hFMO3 (LC-MS); assay type: in vitro ADME
# Procedure: (§1) Enzymatic reactions were carried out with the purified WT and V257M polymorphic variant in the presence of NADPH and increasing amounts of each substrate as reported in the experimental section. […] The kcat and Km values for V257M were approximately half of that of the wild-type (Figure 3A,B) and the kcat for the wild-type enzyme was at least twice as much of the kcat for V257M.
# (§2) The enzyme and NADPH were mixed first and the reaction was initiated by the addition of substrate, preventing thermal degradation of the enzyme. […] The incubations were terminated by the addition of 0.10 mL of ice-cold methanol and 150 μL verapamil as internal standard (IS).
# (§3) Prior to LC-MS analysis the reaction mixtures were filtered through a Microcon centrifugal membrane with 3 kDa cutoff (Millipore, Billercia, MA, USA). Substrates and their metabolites were separated using Agilent 1200 HPLC (Agilent Technologies Inc., Santa Clara, CA, USA) equipped with a narrow bore reversed-phase column Zorbax Eclipse XDB-C18, 2.1 × 150 mm, 3.5 μm (Agilent Technologies, Santa Clara, CA, USA) and using a binary solvent system composed of double distilled water with 0.01% formic acid (A), and acetonitrile (ACN) with 0.1% formic acid (B) at flow rate of 0.2 mL min^−1. The initial mobile phase was composed of 20% of solvent B and it was increased to 70% over a period of 3 min and kept 4 min for isocratic separations of substrate, metabolite and internal standard (IS). Finally, the organic solvent was increased to 100% in 30 s for washing the column. Before follower injection, initial mobile phase was re-established for 10 min.
# (§4) For quantitative purpose, standards and samples were analysed by LC-ESI-MS/MS in MRM mode using the above-indicated parameters. […] Spectral data were processed using data analysis software of 6300 Series Ion Trap LC/MS 4.0 (Bruker Daltonik GmbH, Bremen, Germany). Metabolite formation was quantified by comparing peak area ratios (metabolite/internal standard) of four data sets of incubations for each Michaelis-Menten curve to ratios obtained from a standard curve containing known amounts of the […].
# V257M hFMO3 = target: T2, V257M hFMO3; experiment: N-oxygenation kinetics with purified V257M polymorphic variant of hFMO3 (LC-MS); assay type: in vitro ADME
# Procedure: as §1, §2, §3, §4
# [1] = substrate: CO[C@@H](C(=O)N1Cc2n[nH]c(NC(=O)c3ccc(N4CCN(C)CC4)cc3)c2C1)c1ccccc1; experiment: N-oxygenation kinetics with purified wild-type hFMO3 (LC-MS); assay type: in vitro ADME, human; conditions: other: WT hFMO3, N-oxide formation, 0.17 μM enzyme, 0.5 mM NADPH, pH 7.4, 37 °C
# Procedure: as §1, §2, §3, §4
# [2] = substrate: Cc1cc(Nc2cc(N3CCN(C)CC3)nc(Sc3ccc(NC(=O)C4CC4)cc3)n2)[nH]n1; experiment: as above; assay type: in vitro ADME, human; conditions: other: WT hFMO3, N-oxide formation, 0.17 μM enzyme, 0.5 mM NADPH, pH 7.4, 37 °C
# Procedure: as §1, §2, §3, §4
# [3] = substrate: CO[C@@H](C(=O)N1Cc2n[nH]c(NC(=O)c3ccc(N4CCN(C)CC4)cc3)c2C1)c1ccccc1; experiment: N-oxygenation kinetics with purified V257M polymorphic variant of hFMO3 (LC-MS); assay type: in vitro ADME, human; conditions: other: V257M hFMO3, N-oxide formation, 0.17 μM enzyme, 0.5 mM NADPH, pH 7.4, 37 °C
# Procedure: as §1, §2, §3, §4
# [4] = substrate: Cc1cc(Nc2cc(N3CCN(C)CC3)nc(Sc3ccc(NC(=O)C4CC4)cc3)n2)[nH]n1; experiment: as above; assay type: in vitro ADME, human; conditions: other: V257M hFMO3, N-oxide formation, 0.17 μM enzyme, 0.5 mM NADPH, pH 7.4, 37 °C
# Procedure: as §1, §2, §3, §4
# [5] = WT hFMO3, N-oxide formation, pH 7.4, 37 °C
# [6] = V257M hFMO3, N-oxide formation, pH 7.4, 37 °C
# [7] = V257M hFMO3, N-oxide formation, values in text
molecule,measurement,setting,value
CO[C@@H](C(=O)N1Cc2n[nH]c(NC(=O)c3ccc(N4CCN(C)CC4)cc3)c2C1)c1ccccc1 [Danusertib],Vmax,wild type hFMO3; [5],0.57 ± 0.03 nmol/min/mg FMO3
same,kcat,wild type hFMO3; [5],0.165 s⁻¹
same,Vmax,"wild type hFMO3; wild-type enzyme, values in text",0.57 nmol min^−1 mg FMO3
same,Vmax,V257M hFMO3; [6],0.18 ± 0.01 nmol/min/mg FMO3
same,kcat,V257M hFMO3; [7],0.0533 s⁻¹
same,Vmax,"V257M hFMO3; V257M, values in text",0.18 nmol min^−1 mg FMO3
Cc1cc(Nc2cc(N3CCN(C)CC3)nc(Sc3ccc(NC(=O)C4CC4)cc3)n2)[nH]n1 [Tozasertib],Vmax,wild type hFMO3; [5],0.54 ± 0.02 nmol/min/mg FMO3
same,kcat,wild type hFMO3; [5],0.155 s⁻¹
same,Vmax,"wild type hFMO3; wild type hFMO3, values in text",536 pmol/min/mg FMO3
same,Vmax,V257M hFMO3; [6],0.25 ± 0.01 nmol/min/mg FMO3
same,kcat,V257M hFMO3; [7],0.0717 s⁻¹
same,Vmax,"V257M hFMO3; V257M hFMO3, values in text",248 pmol/min/mg FMO3
"wild type hFMO3 (Homo sapiens) (protein, made in house; host or cells: E. coli JM109 (vector pJL2)) MGKKVAIIGAGVSGLASIRSCLEEGLEPTCFEKSNDIGGLWKFSDHAEEGRASIYKSVFSNSSKEMMCFPDFPFPDDFPNFMHNSKIQEYIIAFAKEKNLLKYIQFKTFVSSVNKHPDFATTGQWDVTTERDGKKESAVFDAVMVCSGHHVYPNLPKESFPGLNHFKGKCFHSRDYKEPGVFNGKRVLVVGLGNSGCDIATELSRTAEQVMISSRSGSWVMSRVWDNGYPWDMLLVTRFGTFLKNNLPTAISDWLYVKQMNARFKHENYGLMPLNGVLRKEPVFNDELPASILCGIVSVKPNVKEFTETSAIFEDGTIFEGIDCVIFATGYSFAYPFLDESIIKSRNNEIILFKGVFPPLLEKSTIAVIGFVQSLGAAIPTVDLQSRWAAQVIKGTCTLPSMEDMMNDINEKMEKKRKWFGKSETIQTDYIVYMDELSSFIGAKPNIPWLFLTDPKLAMEVYFGPCSPYQFRLVGPGQWPGARNAILTQWDRSLKPMQTRVVGRLQKPCFFFHWLKLFAIPILLIAVFLVLT",Km,[1],57.3 ± 8.3 µM
same,kcat,[1],0.165 ± 0.01 s⁻¹
same,kcat/Km,[1],2830 ± 500 M⁻¹ s⁻¹
same,Km,[2],23.8 ± 3.4 µM
same,kcat,[2],0.155 ± 0.005 s⁻¹
same,kcat/Km,[2],6500 ± 1000 M⁻¹ s⁻¹
"V257M hFMO3 (Homo sapiens; V257M) (protein, made in house; host or cells: E. coli JM109 (vector pJL2)) MGKKVAIIGAGVSGLASIRSCLEEGLEPTCFEKSNDIGGLWKFSDHAEEGRASIYKSVFSNSSKEMMCFPDFPFPDDFPNFMHNSKIQEYIIAFAKEKNLLKYIQFKTFVSSVNKHPDFATTGQWDVTTERDGKKESAVFDAVMVCSGHHVYPNLPKESFPGLNHFKGKCFHSRDYKEPGVFNGKRVLVVGLGNSGCDIATELSRTAEQVMISSRSGSWVMSRVWDNGYPWDMLLVTRFGTFLKNNLPTAISDWLYMKQMNARFKHENYGLMPLNGVLRKEPVFNDELPASILCGIVSVKPNVKEFTETSAIFEDGTIFEGIDCVIFATGYSFAYPFLDESIIKSRNNEIILFKGVFPPLLEKSTIAVIGFVQSLGAAIPTVDLQSRWAAQVIKGTCTLPSMEDMMNDINEKMEKKRKWFGKSETIQTDYIVYMDELSSFIGAKPNIPWLFLTDPKLAMEVYFGPCSPYQFRLVGPGQWPGARNAILTQWDRSLKPMQTRVVGRLQKPCFFFHWLKLFAIPILLIAVFLVLT",Km,[3],60.1 ± 11.4 µM
same,kcat,[3],0.0533 s⁻¹
same,kcat/Km,[3],833 ± 167 M⁻¹ s⁻¹
same,Km,[4],12.9 ± 1.3 µM
same,kcat,[4],0.0717 s⁻¹
same,kcat/Km,[4],5500 ± 667 M⁻¹ s⁻¹
